{"source": "patent US20240252488A1", "about": "(KOREA RESEARCH INSTITUTE OF CHEMICAL TECHNOLOGY, priority 2020, published 2024)", "key": {"FADD−/− Jurkat cells": {"test_system": "FADD−/− Jurkat cells", "experiment": "Necroptosis inhibition assay, TNF-α-induced necroptosis (CellTiter-Glo 2.0)", "format": "cell-based, human", "details": "TNF-α 15 ng/mL; for Necroptosis inhibition assay (Rescue %) 10 μM: compound 10 μM; for Necroptosis inhibition assay (Rescue %) 1 μM: compound 1 μM", "procedure": "Necroptosis Inhibition Assay\nNecroptosis inhibition was evaluated by the following method.\n80 μL of FADD gene-defective human T lymphocyte cells (FADD−/− Jurkat cells) were equally distributed into each well at 5.0×10^5 cells/mL in a white 96-well plate with a transparent bottom. 20 μL of the medium containing test compound was treated in each well so that the final concentration of the compound was 0.1, 1, and 10 μM, and reacted at room temperature for 30 minutes. After the 30-minute reaction was over, TNF (tumor necrosis factor)-α was treated in the corresponding well so that the final concentration of TNF-α was 15 ng/mL in order to induce necroptosis. It was cultured in a 5% CO2, 37° C. incubator for 20 to 24 hours.\nAfter incubation, the 96-well plate was left at room temperature for 30 minutes. After 30 minutes, Promega's CellTiter-Glo 2.0 reagent was diluted 1:3 with PBS and 100 μL of the diluted solution was added to each well to confirm cell viability by measuring the amount of ATP. After the treatment, the plate was shielded from light and incubated at room temperature for 2 minutes with orbital shaking, and then left at room temperature for 10 minutes without shaking. After measuring the luminescence at 0.5 seconds per well using a plate scanner, the cytotoxicity and necroptosis inhibition rate for the compound were calculated using the measured values."}, "MLKL": {"target": "T1, MLKL (Homo sapiens, UniProt Q8NB16)", "T1 sequence (Q8NB16 1-471)": "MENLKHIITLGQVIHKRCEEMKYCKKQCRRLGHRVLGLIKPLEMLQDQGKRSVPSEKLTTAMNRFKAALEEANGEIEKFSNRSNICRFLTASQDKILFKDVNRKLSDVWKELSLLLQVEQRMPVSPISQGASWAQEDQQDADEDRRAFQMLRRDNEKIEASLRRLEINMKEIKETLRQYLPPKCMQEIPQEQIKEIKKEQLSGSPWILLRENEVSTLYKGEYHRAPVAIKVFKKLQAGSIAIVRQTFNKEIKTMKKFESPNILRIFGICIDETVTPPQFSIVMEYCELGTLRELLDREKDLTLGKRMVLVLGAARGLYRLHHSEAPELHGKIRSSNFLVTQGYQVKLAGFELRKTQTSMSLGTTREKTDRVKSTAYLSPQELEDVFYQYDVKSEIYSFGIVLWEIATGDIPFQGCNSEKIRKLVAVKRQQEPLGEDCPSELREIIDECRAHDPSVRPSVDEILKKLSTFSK", "experiment": "Measurement of binding affinity with MLKL receptor (competitive binding assay, Kd)", "parameters": "made in house; host or cells: HEK 293 cell line (T7 phage in E. coli BL21-derived host is also described)", "procedure": "Measurement of Binding Affinity with MLKL Receptor (Competitive Binding Assay)\nThe binding affinity was evaluated by measuring the Kd value in the following method.\nTo prepare kinase-tagged T7 phage strains in an E. coli host derived from the BL21 strain, E. coli were grown to log-phase and infected with T7 phage and incubated with shaking at 32° C. until lysis. The lysates were centrifuged and filtered to remove cell debris. For kinase production, it was expressed in human embryonic kidney cell line (HEK 293 cell line), and subsequently tagged with DNA for qPCR detection.\nThe liganded beads were blocked with excess biotin and washed with blocking buffer (SeaBlock (Pierce), 1% BSA, 0.05% Tween 20, 1 mM DTT) to remove unbound ligand and to reduce non-specific binding. […] Test compounds were prepared as 111× stocks in 100% DMSO.\nThe compounds were then diluted directly into the assays such that the final concentration of DMSO was 0.9%. All reactions performed in polypropylene 384-well plate. Each was a final volume of 0.02 ml. […] The kinase concentration in the eluates was measured by qPCR."}}}
{"smiles": "Nc1ncc(C2=CCN(C(=O)CCCCCNC(=O)CNc3cccc4c3C(=O)N(C3CCC(=O)NC3=O)C4=O)CC2)cc1C(=O)O[C@@H](C(=O)Nc1ccc(F)cc1)c1ccccc1", "note": "(stereo partly drawn) [TDH-079, (R)-2-((4-fluorophenyl)amino)-2-oxo-1-phenylethyl 6-amino-1′-(6-(2-((2-(2,6-dioxopiperidin-3-yl)-1,3-dioxoisoindolin-4-yl)amino)acetamido)hexanoyl)-1′,2′,3′,6′-tetrahydro-[3,4′-bipyridine]-5-carboxylate]", "values": [{"measurement": "Necroptosis inhibition assay (Rescue %) 10 μM", "setting": "FADD−/− Jurkat cells", "value": 0.94, "unit": "%"}, {"measurement": "Kd", "setting": "MLKL", "value": 0.045, "unit": "µM"}]}
{"smiles": "Nc1ncc(C2=CCN(C(=O)CCCCCNC(=O)COc3cccc4c3C(=O)N(C3CCC(=O)NC3=O)C4=O)CC2)cc1C(=O)O[C@@H](C(=O)Nc1ccc(F)cc1)c1ccccc1", "note": "(stereo partly drawn) [TDH-081, (R)-2-((4-fluorophenyl)amino)-2-oxo-1-phenylethyl 6-amino-1′-(6-(2-((2-(2,6-dioxopiperidin-3-yl)-1,3-dioxoisoindolin-4-yl)oxy)acetamido)hexanoyl)-1′,2′,3′,6′-tetrahydro-[3,4′-bipyridine]-5-carboxylate]", "values": [{"measurement": "Necroptosis inhibition assay (Rescue %) 1 μM", "setting": "FADD−/− Jurkat cells", "value": 6.8, "unit": "%"}, {"measurement": "Kd", "setting": "MLKL", "value": 0.05, "unit": "µM"}]}
{"smiles": "Nc1ncc(C2=CCN(C(=O)COCCOCCNC(=O)CNc3cccc4c3C(=O)N(C3CCC(=O)NC3=O)C4=O)CC2)cc1C(=O)O[C@@H](C(=O)Nc1ccc(F)cc1)c1ccccc1", "note": "(stereo partly drawn) [TDH-084, (R)-2-((4-fluorophenyl)amino)-2-oxo-1-phenylethyl 6-amino-1′-(2-(2-(2-(2-((2-(2,6-dioxopiperidin-3-yl)-1,3-dioxoisoindolin-4-yl)amino)acetamido)ethoxy)ethoxy)acetyl)-1′,2′,3′,6′-tetrahydro-[3,4′-bipyridine]-5-carboxylate]", "values": [{"measurement": "Necroptosis inhibition assay (Rescue %) 1 μM", "setting": "FADD−/− Jurkat cells", "value": 14.91, "unit": "%"}, {"measurement": "Necroptosis inhibition assay (Rescue %) 10 μM", "setting": "FADD−/− Jurkat cells", "value": 3.95, "unit": "%"}, {"measurement": "Kd", "setting": "MLKL", "value": 0.019, "unit": "µM"}]}
{"smiles": "Nc1ncc(C2=CCN(C(=O)COCCOCCNC(=O)CNc3ccc4c(c3)C(=O)N(C3CCC(=O)NC3=O)C4=O)CC2)cc1C(=O)O[C@@H](C(=O)Nc1ccc(F)cc1)c1ccccc1", "note": "(stereo partly drawn) [TDH-085, (R)-2-((4-fluorophenyl)amino)-2-oxo-1-phenylethyl 6-amino-1′-(2-(2-(2-(2-((2-(2,6-dioxopiperidin-3-yl)-1,3-dioxoisoindolin-5-yl)amino)acetamido)ethoxy)ethoxy)acetyl)-1′,2′,3′,6′-tetrahydro-[3,4′-bipyridine]-5-carboxylate]", "values": [{"measurement": "Necroptosis inhibition assay (Rescue %) 1 μM", "setting": "FADD−/− Jurkat cells", "value": 5.02, "unit": "%"}, {"measurement": "Kd", "setting": "MLKL", "value": 0.012, "unit": "µM"}]}
{"smiles": "Nc1ncc(C2=CCN(C(=O)COCCOCCNC(=O)C3CN(c4cccc5c4C(=O)N(C4CCC(=O)NC4=O)C5=O)C3)CC2)cc1C(=O)O[C@@H](C(=O)Nc1ccc(F)cc1)c1ccccc1", "note": "(stereo partly drawn) [TDH-086, (R)-2-((4-fluorophenyl)amino)-2-oxo-1-phenylethyl 6-amino-1′-(2-(2-(2-(1-(2-(2,6-dioxopiperidin-3-yl)-1,3-dioxoisoindolin-4-yl)azetidine-3-carboxamido)ethoxy)ethoxy)acetyl)-1′,2′, 3′,6′-tetrahydro-[3,4′-bipyridine]-5-carboxylate]", "values": [{"measurement": "Necroptosis inhibition assay (Rescue %) 1 μM", "setting": "FADD−/− Jurkat cells", "value": 2.91, "unit": "%"}, {"measurement": "Kd", "setting": "MLKL", "value": 0.041, "unit": "µM"}]}
{"smiles": "Nc1ncc(C2=CCN(C(=O)COCCOCCNC(=O)C3CCN(c4cccc5c4C(=O)N(C4CCC(=O)NC4=O)C5=O)CC3)CC2)cc1C(=O)O[C@@H](C(=O)Nc1ccc(F)cc1)c1ccccc1", "note": "(stereo partly drawn) [TDH-088, (R)-2-((4-fluorophenyl)amino)-2-oxo-1-phenylethyl 6-amino-1′-(2-(2-(2-(1-(2-(2,6-dioxopiperidin-3-yl)-1,3-dioxoisoindolin-4-yl)piperidine-4-carboxamido)ethoxy)ethoxy)acetyl)-1′,2′,3′,6′-tetrahydro-[3,4′-bipyridine]-5-carboxylate]", "values": [{"measurement": "Necroptosis inhibition assay (Rescue %) 1 μM", "setting": "FADD−/− Jurkat cells", "value": 4.62, "unit": "%"}, {"measurement": "Kd", "setting": "MLKL", "value": 0.033, "unit": "µM"}]}
{"smiles": "Nc1ncc(C2=CCN(C(=O)CCCCCNC(=O)C3CN(c4ccc5c(c4)C(=O)N(C4CCC(=O)NC4=O)C5=O)C3)CC2)cc1C(=O)O[C@@H](C(=O)Nc1ccc(F)cc1)c1ccccc1", "note": "(stereo partly drawn) [TDH-092, (R)-2-((4-fluorophenyl)amino)-2-oxo-1-phenylethyl 6-amino-1′-(6-(1-(2-(2,6-dioxopiperidin-3-yl)-1,3-dioxoisoindolin-5-yl)azetidine-3-carboxamido)hexanoyl)-1′,2′,3′,6′-tetrahydro-[3,4′-bipyridine]-5-carboxylate]", "values": [{"measurement": "Necroptosis inhibition assay (Rescue %) 1 μM", "setting": "FADD−/− Jurkat cells", "value": 2.1, "unit": "%"}, {"measurement": "Kd", "setting": "MLKL", "value": 0.12, "unit": "µM"}]}
{"smiles": "CC(C)(C)OC(=O)N1CCC(n2cc(-c3cnc(N)c(C(=O)N[C@@H](C(=O)Nc4ccc(F)cc4)c4ccccc4)n3)cn2)CC1", "note": "[TDH-098, tert-butyl (R)-4-(4-(5-amino-6-((2-((4-fluorophenyl)amino)-2-oxo-1-phenylethyl)carbamoyl)pyrazin-2-yl)-1H-pyrazol-1-yl)piperidine-1-carboxylate]", "values": [{"measurement": "Necroptosis inhibition assay (Rescue %) 1 μM", "setting": "FADD−/− Jurkat cells", "value": 3.54, "unit": "%"}, {"measurement": "Kd", "setting": "MLKL", "value": 0.2, "unit": "µM"}]}
{"smiles": "Cl.Nc1ncc(-c2cnn(C3CCNCC3)c2)nc1C(=O)N[C@@H](C(=O)Nc1ccc(F)cc1)c1ccccc1", "note": "[TDH-099, (R)-3-amino-N-(2-((4-fluorophenyl)amino)-2-oxo-1-phenylethyl)-6-(1-(piperidin-4-yl)-1H-pyrazol-4-yl)pyrazine-2-carboxamide hydrochloride]", "values": [{"measurement": "Necroptosis inhibition assay (Rescue %) 1 μM", "setting": "FADD−/− Jurkat cells", "value": 18.18, "unit": "%"}, {"measurement": "Kd", "setting": "MLKL", "value": 0.011, "unit": "µM"}]}
{"smiles": "Nc1ncc(C2=CCN(CCOCCOCCNC(=O)CNc3ccc4c(c3)C(=O)N(C3CCC(=O)NC3=O)C4=O)CC2)nc1C(=O)O[C@@H](C(=O)Nc1ccc(F)cc1)c1ccccc1", "note": "(stereo partly drawn) [TDH-107, (R)-2-((4-fluorophenyl)amino)-2-oxo-1-phenylethyl 3-amino-6-(1-(2-(2-(2-(2-((2-(2,6-dioxopiperidin-3-yl)-1,3-dioxoisoindolin-5-yl)amino)acetamido)ethoxy)ethoxy)ethyl)-1,2,3,6-tetrahydropyridin-4-yl)pyrazine-2-carboxylate]", "values": [{"measurement": "Necroptosis inhibition assay (Rescue %) 1 μM", "setting": "FADD−/− Jurkat cells", "value": 24.34, "unit": "%"}, {"measurement": "Necroptosis inhibition assay (Rescue %) 10 μM", "setting": "FADD−/− Jurkat cells", "value": 50.16, "unit": "%"}, {"measurement": "Kd", "setting": "MLKL", "value": 0.56, "unit": "µM"}]}
{"smiles": "Cl.Nc1ncc(-c2cnn(C3CCNCC3)c2)cc1C(=O)O[C@@H](C(=O)Nc1ccc(F)cc1)c1ccccc1", "note": "[TDH-112, (R)-2-((4-fluorophenyl)amino)-2-oxo-1-phenylethyl 2-amino-5-(1-(piperidin-4-yl)-1H-pyrazol-4-yl)nicotinate hydrochloride]", "values": [{"measurement": "Necroptosis inhibition assay (Rescue %) 1 μM", "setting": "FADD−/− Jurkat cells", "value": 20.24, "unit": "%"}, {"measurement": "Kd", "setting": "MLKL", "value": 0.002, "unit": "µM"}]}
{"smiles": "Nc1ncc(-c2cnn(C3CCN(CCOCCOCCNC(=O)C4CN(c5ccc6c(c5)C(=O)N(C5CCC(=O)NC5=O)C6=O)C4)CC3)c2)nc1C(=O)O[C@@H](C(=O)Nc1ccc(F)cc1)c1ccccc1", "note": "(stereo partly drawn) [TDH-116, (R)-2-((4-fluorophenyl)amino)-2-oxo-1-phenylethyl 3-amino-6-(1-(1-(2-(2-(2-(1-(2-(2,6-dioxopiperidin-3-yl)-1,3-dioxoisoindolin-5-yl)azetidine-3-carboxamido)ethoxy)ethoxy)ethyl)piperidin-4-yl)-1H-pyrazol-4-yl)pyrazine-2-carboxylate]", "values": [{"measurement": "Necroptosis inhibition assay (Rescue %) 1 μM", "setting": "FADD−/− Jurkat cells", "value": 16.8, "unit": "%"}, {"measurement": "Necroptosis inhibition assay (Rescue %) 10 μM", "setting": "FADD−/− Jurkat cells", "value": 42.8, "unit": "%"}, {"measurement": "Kd", "setting": "MLKL", "value": 0.002, "unit": "µM"}]}
{"smiles": "Nc1ncc(-c2cnn(C3CCN(CCCCCCNc4ccc5c(c4)C(=O)N(C4CCC(=O)NC4=O)C5=O)CC3)c2)nc1C(=O)O[C@@H](C(=O)Nc1ccc(F)cc1)c1ccccc1", "note": "(stereo partly drawn) [TDH-120, (R)-2-((4-fluorophenyl)amino)-2-oxo-1-phenylethyl 3-amino-6-(1-(1-(6-((2-(2,6-dioxopiperidin-3-yl)-1,3-dioxoisoindolin-5-yl)amino)hexyl)piperidin-4-yl)-1H-pyrazol-4-yl)pyrazine-2-carboxylate]", "values": [{"measurement": "Necroptosis inhibition assay (Rescue %) 1 μM", "setting": "FADD−/− Jurkat cells", "value": 10.65, "unit": "%"}, {"measurement": "Kd", "setting": "MLKL", "value": 0.0017, "unit": "µM"}]}
